The values that follow come from ChEMBL document CHEMBL5055651, “Synthesis of small molecules targeting paclitaxel-induced MyD88 expression in triple-negative breast cancer cell lines” (Bioorg Med Chem, 2021).

Data set [1] deals with MDA-MB-231. Kind of data set: Cytotoxicity against human MDA-MB-231 cells expressing TLR4 assessed as reduction in cell viability measured after 96 hrs by MTT assay. The note with it: MDA-MB-231, 96 h. The class given is functional, cell-based. In general terms: Tetrazolium assays rely on reduction of a dye to a coloured formazan, in cell work by metabolically active cells.

Data set [2] has as its system HCC1806. Kind of data set: Cytotoxicity against human HCC1806 cells assessed as reduction in cell viability measured after 96 hrs by MTT assay. Format: functional, cell-based. The note with it: HCC1806, 96 h.
In data set [3] the test system is MCF7. Put plainly: Cytotoxicity against human MCF7 cells expressing TLR4 assessed as reduction in cell viability measured after 96 hrs by MTT assay. Format: functional, cell-based. The note with it: MCF7, 96 h.
Another data set relates to BEAS-2B. Put plainly: Cytotoxicity against human BEAS-2B cells reduction in cell viability measured after 96 hrs by MTT assay. The class given is cell-based.
Data set [4] in a line: Effect on MyD88 expression in human MDA-MB-231 cells expressing TLR4 at 0.1 to 10 uM after 24 hrs by ELISA. The class given is cell-based. The note with it: mda-mb-231, 24 h, dose 0.1-10 µM. A general note: In an ELISA, binding on a coated surface is turned into a signal by an enzyme label.
Data set [5] in a line: Suppression of MyD88 expression in human MDA-MB-231 cells expressing TLR4 at 0.1 uM pretreated with compounds for 24 hrs followed by PTX challenge and measured after 24 hrs by ELISA relative to control. The note with it: time 48 hrs. Format: functional.
Data set [6] in a line: Suppression of MyD88 expression in human MDA-MB-231 cells expressing TLR4 at 1 uM pretreated with compounds for 24 hrs followed by PTX challenge and measured after 24 hrs by ELISA relative to control. The following applies: time 48 hrs. Format: functional.
Data set [7] is described as follows: Suppression of MyD88 expression in human MDA-MB-231 cells expressing TLR4 at 10 uM pretreated with compounds for 24 hrs followed by PTX challenge and measured after 24 hrs by ELISA relative to control. Format: functional. The following applies: time 48 hrs.
Data set [8] deals with MDA-MB-231. Put plainly: Cytotoxicity against human MDA-MB-231 cells expressing TLR4 assessed cell growth inhibition at 10 uM measured after 96 hrs by MTT assay relative to control. The class given is functional. The following applies: read-out: GI.
Data set [9] relates to HCC1806. Kind of data set: Cytotoxicity against human HCC1806 cells assessed cell growth inhibition at 10 uM measured after 96 hrs by MTT assay relative to control. Format: functional. The following applies: read-out: GI.
Data set [10] deals with MCF7. Kind of data set: Cytotoxicity against human MCF7 cells expressing TLR4 assessed cell growth inhibition at 10 uM measured after 96 hrs by MTT assay relative to control. The class given is functional. The following applies: read-out: GI.
The test system of data set [11] is MDA-MB-231. Put plainly: Cytotoxicity against human MDA-MB-231 cells expressing TLR4 assessed as cell viability at 10 uM measured after 96 hrs by MTT assay relative to control. The class given is functional. The note with it: read-out: Activity.
Data set [12] has as its system HCC1806. Kind of data set: Cytotoxicity against human HCC1806 cells assessed as cell viability at 10 uM measured after 96 hrs by MTT assay relative to control. The following applies: read-out: Activity. The class given is functional.
In data set [13] the test system is MCF7. Kind of data set: Cytotoxicity against human MCF7 cells expressing TLR4 assessed as cell viability at 10 uM measured after 96 hrs by MTT assay relative to control. Format: functional. The note with it: read-out: Activity.
The nature of data set [14]: Selectivity index, ratio of IC50 for human BEAS-2B cells to IC50 for human MDA-MB-231 cells. Format: toxicity. The following applies: BEAS-2B cells versus MDA-MB-231 cells, read-out: Selectivity Index.
Data set [15] is described as follows: Selectivity index, ratio of IC50 for human BEAS-2B cells to IC50 for human MCF7 cells. The note with it: BEAS-2B cells versus MCF7 cells, read-out: Selectivity Index. The class given is toxicity.
For data set [16], the system named is MDA-MB-231. Put plainly: Cytotoxicity against human MDA-MB-231 cells expressing TLR4 assessed as growth inhibition measured after 96 hrs by MTT assay. The class given is functional, cell-based. The note with it: MDA-MB-231, 96 h.
Data set [17] deals with HCC1806. Kind of data set: Cytotoxicity against human HCC1806 cells assessed as growth inhibition measured after 96 hrs by MTT assay. Format: cell-based. The following applies: HCC1806, 96 h.

In general, IC50 refers to the concentration at which inhibition is half-maximal.

As to `O=C(C1=C(O)/C(=C/c2ccc(C(F)(F)F)cc2)CCC1)c1ccccc1`, the IC50 in the data set on MDA-MB-231 [1] was determined as 6500 nM; in the data set with HCC1806 [2], 5330 nM; in the data set with MCF7 [3] it was 2300 nM; with BEAS-2B it was 3800 nM. For the same compound, the Activity in [4] is on record as 23%; in [5] it was 17.64%; in data set [6] it was 24.77%; in data set [7], 27.94%. Moreover, the inhibition of growth at 10 µM with MDA-MB-231 [8], in the data set with HCC1806 [9] and in the data set with MCF7 [10] was 8% each time.

Take `COc1cc(C)ccc1/C=C1\CCCC(C(=O)c2ccccc2)=C1O`: the viability at 10 µM in the data set with MDA-MB-231 [11], with HCC1806 [12] and in the data set with MCF7 [13] was 87% each time.

As for `CC(=O)O[C@H]1C(=O)[C@@]2(C)[C@H]([C@H](OC(=O)c3ccccc3)[C@]3(O)C[C@H](OC(=O)[C@H](O)[C@@H](NC(=O)c4ccccc4)c4ccccc4)C(C)=C1C3(C)C)[C@]1(OC(C)=O)CO[C@@H]1C[C@@H]2O` [PACLITAXEL], the IC50 in the data set on MDA-MB-231 [1] came to 40 nM; with HCC1806 [2], 9 nM; in the data set with MCF7 [3], 30 nM; in the data set on BEAS-2B, 8 nM; in the data set on MDA-MB-231 [16], 27 nM; with HCC1806 [17], 8 nM. Also, the selectivity ratio in data set [14] was determined as 0.2; in data set [15] it was 0.26.
